# Experimental data as given in PubChem BioAssay (NCI).
#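 Interpolation was linear, between the two tested concentrations surrounding the appropriate level; five concentrations were tested over 48 hours in 96-well plates. TGI marks complete inhibition of growth.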
# Columns and labels:
# Assay in all cases: NCI-60 cell line screen, 48 h
# 786-0 renal = test system: 786-0 renal
# A498 renal = test system: A498 renal
# A549 NSCLC = test system: A549 NSCLC
# ACHN renal = test system: ACHN renal
# CAKI-1 renal = test system: CAKI-1 renal
# CCRF-CEM leukemia = test system: CCRF-CEM leukemia
# COLO 205 colon = test system: COLO 205 colon
# DLD-1 colon = test system: DLD-1 colon
# DMS 114 small cell lung = test system: DMS 114 small cell lung
# DMS 273 small cell lung = test system: DMS 273 small cell lung
# EKVX NSCLC = test system: EKVX NSCLC
# HCC-2998 colon = test system: HCC-2998 colon
# HCT-116 colon = test system: HCT-116 colon
# HCT-15 colon = test system: HCT-15 colon
# HL-60(TB) leukemia = test system: HL-60(TB) leukemia
# HOP-62 NSCLC = test system: HOP-62 NSCLC
# HOP-92 NSCLC = test system: HOP-92 NSCLC
# HT29 colon = test system: HT29 colon
# IGROV1 ovarian = test system: IGROV1 ovarian
# K-562 leukemia = test system: K-562 leukemia
# KM12 colon = test system: KM12 colon
# KM20L2 colon = test system: KM20L2 colon
# LOX IMVI melanoma = test system: LOX IMVI melanoma
# LXFL 529 NSCLC = test system: LXFL 529 NSCLC
# M14 melanoma = test system: M14 melanoma
# M19-MEL melanoma = test system: M19-MEL melanoma
# MOLT-4 leukemia = test system: MOLT-4 leukemia
# NCI-H226 lung = test system: NCI-H226 lung
# NCI-H23 lung = test system: NCI-H23 lung
# NCI-H460 lung = test system: NCI-H460 lung
# NCI-H522 lung = test system: NCI-H522 lung
# OVCAR-4 ovarian = test system: OVCAR-4 ovarian
# OVCAR-5 ovarian = test system: OVCAR-5 ovarian
# OVCAR-8 ovarian = test system: OVCAR-8 ovarian
# RPMI-8226 leukemia = test system: RPMI-8226 leukemia
# SF-268 CNS = test system: SF-268 CNS
# SF-295 CNS = test system: SF-295 CNS
# SF-539 CNS = test system: SF-539 CNS
# SK-MEL-2 melanoma = test system: SK-MEL-2 melanoma
# SK-MEL-28 melanoma = test system: SK-MEL-28 melanoma
# SK-MEL-5 melanoma = test system: SK-MEL-5 melanoma
# SK-OV-3 ovarian = test system: SK-OV-3 ovarian
# SN12C renal = test system: SN12C renal
# SNB-19 CNS = test system: SNB-19 CNS
# SNB-75 CNS = test system: SNB-75 CNS
# SNB-78 CNS = test system: SNB-78 CNS
# SR leukemia = test system: SR leukemia
# SW-620 colon = test system: SW-620 colon
# TK-10 renal = test system: TK-10 renal
# U251 CNS = test system: U251 CNS
# UACC-257 melanoma = test system: UACC-257 melanoma
# UACC-62 melanoma = test system: UACC-62 melanoma
# UO-31 renal = test system: UO-31 renal
# XF 498 CNS = test system: XF 498 CNS
# RXF 393 renal = test system: RXF 393 renal
# OVCAR-3 ovarian = test system: OVCAR-3 ovarian
# HOP-18 NSCLC = test system: HOP-18 NSCLC
# MALME-3M melanoma = test system: MALME-3M melanoma
structure (smiles),measurement,setting,value
CCC1C(=O)OCc2c1cc1n(c2=O)CCC12OCCO2 (stereo unspecified),TGI,786-0 renal,> 100 µM
same,TGI,A498 renal,> 100 µM
same,TGI,A549 NSCLC,> 100 µM
same,TGI,ACHN renal,> 100 µM
same,TGI,CAKI-1 renal,> 100 µM
same,TGI,CCRF-CEM leukemia,> 100 µM
same,TGI,COLO 205 colon,> 100 µM
same,TGI,DLD-1 colon,> 100 µM
same,TGI,DMS 114 small cell lung,> 100 µM
same,TGI,DMS 273 small cell lung,> 100 µM
same,TGI,EKVX NSCLC,> 100 µM
same,TGI,HCC-2998 colon,> 100 µM
same,TGI,HCT-116 colon,> 100 µM
same,TGI,HCT-15 colon,> 100 µM
same,TGI,HL-60(TB) leukemia,> 100 µM
same,TGI,HOP-62 NSCLC,> 100 µM
same,TGI,HOP-92 NSCLC,> 100 µM
same,TGI,HT29 colon,> 100 µM
same,TGI,IGROV1 ovarian,> 100 µM
same,TGI,K-562 leukemia,> 100 µM
same,TGI,KM12 colon,> 100 µM
same,TGI,KM20L2 colon,> 100 µM
same,TGI,LOX IMVI melanoma,> 100 µM
same,TGI,LXFL 529 NSCLC,> 100 µM
same,TGI,M14 melanoma,> 100 µM
same,TGI,M19-MEL melanoma,> 100 µM
same,TGI,MOLT-4 leukemia,> 100 µM
same,TGI,NCI-H226 lung,> 100 µM
same,TGI,NCI-H23 lung,> 100 µM
same,TGI,NCI-H460 lung,> 100 µM
same,TGI,NCI-H522 lung,> 100 µM
same,TGI,OVCAR-4 ovarian,> 100 µM
same,TGI,OVCAR-5 ovarian,> 100 µM
same,TGI,OVCAR-8 ovarian,> 100 µM
same,TGI,RPMI-8226 leukemia,> 100 µM
same,TGI,SF-268 CNS,> 100 µM
same,TGI,SF-295 CNS,> 100 µM
same,TGI,SF-539 CNS,> 100 µM
same,TGI,SK-MEL-2 melanoma,> 100 µM
same,TGI,SK-MEL-28 melanoma,> 100 µM
same,TGI,SK-MEL-5 melanoma,> 100 µM
same,TGI,SK-OV-3 ovarian,> 100 µM
same,TGI,SN12C renal,> 100 µM
same,TGI,SNB-19 CNS,> 100 µM
same,TGI,SNB-75 CNS,> 100 µM
same,TGI,SNB-78 CNS,> 100 µM
same,TGI,SR leukemia,> 100 µM
same,TGI,SW-620 colon,> 100 µM
same,TGI,TK-10 renal,> 100 µM
same,TGI,U251 CNS,> 100 µM
same,TGI,UACC-257 melanoma,> 100 µM
same,TGI,UACC-62 melanoma,> 100 µM
same,TGI,UO-31 renal,> 100 µM
same,TGI,XF 498 CNS,> 100 µM
O=C1CCn2c([nH]c3cccc4cccc2c43)=N1,TGI,786-0 renal,> 100 µM
same,TGI,A549 NSCLC,> 100 µM
same,TGI,ACHN renal,> 100 µM
same,TGI,CCRF-CEM leukemia,> 100 µM
same,TGI,COLO 205 colon,> 100 µM
same,TGI,DMS 114 small cell lung,> 100 µM
same,TGI,DMS 273 small cell lung,> 100 µM
same,TGI,EKVX NSCLC,> 100 µM
same,TGI,HCC-2998 colon,> 100 µM
same,TGI,HCT-116 colon,> 100 µM
same,TGI,HCT-15 colon,> 100 µM
same,TGI,HL-60(TB) leukemia,> 100 µM
same,TGI,HOP-62 NSCLC,> 100 µM
same,TGI,HT29 colon,> 100 µM
same,TGI,IGROV1 ovarian,> 100 µM
same,TGI,K-562 leukemia,> 100 µM
same,TGI,KM20L2 colon,> 100 µM
same,TGI,LOX IMVI melanoma,> 100 µM
same,TGI,LXFL 529 NSCLC,> 100 µM
same,TGI,M14 melanoma,> 100 µM
same,TGI,M19-MEL melanoma,> 100 µM
same,TGI,MOLT-4 leukemia,> 100 µM
same,TGI,NCI-H226 lung,> 100 µM
same,TGI,NCI-H23 lung,> 100 µM
same,TGI,NCI-H460 lung,> 100 µM
same,TGI,OVCAR-4 ovarian,> 100 µM
same,TGI,OVCAR-5 ovarian,> 100 µM
same,TGI,OVCAR-8 ovarian,> 100 µM
same,TGI,RPMI-8226 leukemia,> 100 µM
same,TGI,RXF 393 renal,> 100 µM
same,TGI,SF-268 CNS,> 100 µM
same,TGI,SF-539 CNS,> 100 µM
same,TGI,SK-MEL-28 melanoma,> 100 µM
same,TGI,SK-MEL-5 melanoma,> 100 µM
same,TGI,SK-OV-3 ovarian,> 100 µM
same,TGI,SN12C renal,> 100 µM
same,TGI,SNB-19 CNS,> 100 µM
same,TGI,SNB-75 CNS,> 100 µM
same,TGI,SNB-78 CNS,> 100 µM
same,TGI,SR leukemia,> 100 µM
same,TGI,SW-620 colon,> 100 µM
same,TGI,TK-10 renal,> 100 µM
same,TGI,U251 CNS,> 100 µM
same,TGI,UACC-257 melanoma,> 100 µM
same,TGI,UACC-62 melanoma,> 100 µM
same,TGI,UO-31 renal,> 100 µM
same,TGI,XF 498 CNS,> 100 µM
C=C(COC(C)=O)CC(/C=C(\C)CCC=C(C)C)OC(C)=O (stereo unspecified),TGI,786-0 renal,> 100 µM
same,TGI,A498 renal,> 100 µM
same,TGI,A549 NSCLC,> 100 µM
same,TGI,ACHN renal,> 100 µM
same,TGI,CCRF-CEM leukemia,> 100 µM
same,TGI,COLO 205 colon,> 100 µM
same,TGI,DLD-1 colon,> 100 µM
same,TGI,DMS 114 small cell lung,> 100 µM
same,TGI,DMS 273 small cell lung,> 100 µM
same,TGI,EKVX NSCLC,> 100 µM
same,TGI,HCC-2998 colon,> 100 µM
same,TGI,HCT-116 colon,> 100 µM
same,TGI,HCT-15 colon,> 100 µM
same,TGI,HL-60(TB) leukemia,> 100 µM
same,TGI,HOP-62 NSCLC,> 100 µM
same,TGI,HOP-92 NSCLC,> 100 µM
same,TGI,HT29 colon,> 100 µM
same,TGI,IGROV1 ovarian,> 100 µM
same,TGI,K-562 leukemia,> 100 µM
same,TGI,KM12 colon,> 100 µM
same,TGI,KM20L2 colon,> 100 µM
same,TGI,LOX IMVI melanoma,> 100 µM
same,TGI,LXFL 529 NSCLC,> 100 µM
same,TGI,M14 melanoma,> 100 µM
same,TGI,M19-MEL melanoma,> 100 µM
same,TGI,MOLT-4 leukemia,> 100 µM
same,TGI,NCI-H226 lung,> 100 µM
same,TGI,NCI-H23 lung,> 100 µM
same,TGI,NCI-H460 lung,> 100 µM
same,TGI,NCI-H522 lung,> 100 µM
same,TGI,OVCAR-3 ovarian,> 100 µM
same,TGI,OVCAR-4 ovarian,> 100 µM
same,TGI,OVCAR-5 ovarian,> 100 µM
same,TGI,OVCAR-8 ovarian,> 100 µM
same,TGI,RXF 393 renal,> 100 µM
same,TGI,SF-268 CNS,> 100 µM
same,TGI,SF-295 CNS,> 100 µM
same,TGI,SF-539 CNS,> 100 µM
same,TGI,SK-MEL-2 melanoma,> 100 µM
same,TGI,SK-MEL-28 melanoma,> 100 µM
same,TGI,SK-MEL-5 melanoma,> 100 µM
same,TGI,SK-OV-3 ovarian,> 100 µM
same,TGI,SN12C renal,> 100 µM
same,TGI,SNB-19 CNS,> 100 µM
same,TGI,SNB-75 CNS,> 100 µM
same,TGI,SNB-78 CNS,> 100 µM
same,TGI,SW-620 colon,> 100 µM
same,TGI,TK-10 renal,> 100 µM
same,TGI,U251 CNS,> 100 µM
same,TGI,UACC-62 melanoma,> 100 µM
same,TGI,UO-31 renal,> 100 µM
same,TGI,XF 498 CNS,> 100 µM
CC1CCCC(C(=O)/C(=C/c2cccc(Cl)c2)C(=O)C(=O)O)C1 (stereo unspecified),TGI,786-0 renal,33 µM
same,TGI,A498 renal,> 100 µM
same,TGI,A549 NSCLC,> 100 µM
same,TGI,ACHN renal,> 100 µM
same,TGI,CAKI-1 renal,> 100 µM
same,TGI,CCRF-CEM leukemia,48.3 µM
same,TGI,COLO 205 colon,> 100 µM
same,TGI,DLD-1 colon,40.3 µM
same,TGI,DMS 114 small cell lung,45.7 µM
same,TGI,DMS 273 small cell lung,> 100 µM
same,TGI,EKVX NSCLC,> 100 µM
same,TGI,HCC-2998 colon,25.4 µM
same,TGI,HCT-116 colon,26.9 µM
same,TGI,HCT-15 colon,28.2 µM
same,TGI,HL-60(TB) leukemia,47.9 µM
same,TGI,HOP-18 NSCLC,> 100 µM
same,TGI,HOP-62 NSCLC,> 100 µM
same,TGI,HOP-92 NSCLC,> 100 µM
same,TGI,HT29 colon,38.1 µM
same,TGI,IGROV1 ovarian,83.5 µM
same,TGI,K-562 leukemia,47.4 µM
same,TGI,KM12 colon,30.6 µM
same,TGI,KM20L2 colon,90 µM
same,TGI,LXFL 529 NSCLC,43 µM
same,TGI,M14 melanoma,68.5 µM
same,TGI,M19-MEL melanoma,32.7 µM
same,TGI,MALME-3M melanoma,> 100 µM
same,TGI,MOLT-4 leukemia,49.8 µM
same,TGI,NCI-H226 lung,> 100 µM
same,TGI,NCI-H23 lung,> 100 µM
same,TGI,NCI-H460 lung,> 100 µM
same,TGI,NCI-H522 lung,24.7 µM
same,TGI,OVCAR-3 ovarian,55.4 µM
same,TGI,OVCAR-4 ovarian,> 100 µM
same,TGI,OVCAR-5 ovarian,> 100 µM
same,TGI,OVCAR-8 ovarian,40 µM
same,TGI,RPMI-8226 leukemia,38 µM
same,TGI,SF-268 CNS,92.3 µM
same,TGI,SF-295 CNS,> 100 µM
same,TGI,SF-539 CNS,64.9 µM
same,TGI,SK-MEL-28 melanoma,> 100 µM
same,TGI,SK-MEL-5 melanoma,> 100 µM
same,TGI,SK-OV-3 ovarian,> 100 µM
same,TGI,SN12C renal,> 100 µM
same,TGI,SNB-19 CNS,> 100 µM
same,TGI,SNB-75 CNS,> 100 µM
same,TGI,SNB-78 CNS,> 100 µM
same,TGI,SW-620 colon,27.7 µM
same,TGI,TK-10 renal,> 100 µM
same,TGI,U251 CNS,32.5 µM
same,TGI,UACC-257 melanoma,> 100 µM
same,TGI,UACC-62 melanoma,> 100 µM
same,TGI,UO-31 renal,> 100 µM
